Counter-ions that a name gives are not always drawn.
Assays:
[1] = target: T1, SMYD3 (Homo sapiens (Human), UniProt Q9H7B4); assay: SMYD3 biochemical assay (SMYD3 enzyme assay on MEKK2 protein substrate, 3H-SAM scintillation proximity assay); settings: read-out: SMYD3 Biochem IC50
Outline: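 Native full-length human SMYD3, expressed in E. coli, was preincubated with compound for 30 min at room temperature in 25 mM Tris-Cl pH 8.0, 1 mM TCEP, 0.005% BSG and 0.005% Tween 20. ³H-SAM plus GST-MEKK2 then started the reaction. It was stopped with unlabeled SAM (100 uM final), and methylated MEKK2 was read by SPA.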

[2] = target: T1, SMYD3; assay: SMYD3 cell assay (Trimethyl-MEKK2 In-Cell Western in 293T/17 cells transfected with MEKK2-flag and SMYD3); assay type: cell-based
Source text: Trimethyl-MEKK2-in-Cell Western Assay
MEM/Glutamax medium, Optimem Reduced Serum medium, penicillin-streptomycin, 0.05% trypsin and 1×D-PBS were purchased from Life Technologies, Grand Island, N.Y., USA. PBS-10× was purchased from Ambion, Life Technologies, Grand Island, N.Y., USA. PBS with Tween 20 (PBST (10×)) was purchased from KPL, Gaithersburg, Md., USA. Tet System FBS-approved FBS US Source was purchased from Clontech, Mountain View, Calif., USA. Odyssey blocking buffer, 800CW goat anti-rabbit IgG (H+L) antibody, 680CW Goat anti-mouse IgG (H+L) and Licor Odyssey infrared scanner were purchased from Licor Biosciences, Lincoln, Nebr., USA. Tri-methyl-Lysine [A260]-MEKK2 antibody, MEKK2 and SMYD3 plasmids were made at Epizyme. Anti-flag monoclonal mouse antibody was purchased from Sigma, St. Louis, Mo., USA. Methanol was purchased from VWR, Franklin, Mass., USA. 10% Tween 20 was purchased from KPL, Inc., Gaithersburg, Md., USA. Fugene was purchased from Promega, Madison, Wis., USA. The Biotek ELx405 was purchased from BioTek, Winooski, Vt., USA. The multidrop combi was purchased from Thermo Scientific, Waltham, Mass., USA.
Cell Treatment, in Cell Western (ICW) for Detection of Trimethyl-Lysine-MEKK2 and MEKK2.
Plasmids were prepared for delivery to cells by first mixing 1350 μL Opti-MEM with Fugene (81 μL) in a sterile Eppendorf and incubated for five minutes at room temperature (RT). […] Entire volume of Opti-MEM/Fugene mixture was then added to a microfuge tube containing DNA plasmid, mixed and then incubated ×15 minutes at RT. […] Medium was then removed, and cells were washed once with PBS in the flask. Trypsin 0.05% (3 mL) was added and cells incubated for three minutes. Room temperature MEM+10% Tet system FBS was added and cells were mixed gently, and counted using the Vi-cell. Cells were seeded at 100,000 cells/mL in 50 μL MEM/10% Tet FBS/Pen/Strep to a 384 well black/clear poly-D-lysine coated plate containing test agent diluted in DMSO. The final top concentration of test compound was 40 μM. […] Plates were incubated ×30 minutes at RT in low-airflow area, followed by incubation at 37° C. under 5% CO2 for 24 hours. Medium was aspirated from all wells of assay plates prior to fixation and permeabilization with ice cold (−20° C.) methanol (90 μL/well) for ten minutes. Plates were rinsed with PBS three times on BioTek ELx405. PBS was removed with a final aspiration, and Odyssey blocking buffer (50 μL/well) was added to each well and incubated for one hour at RT. Primary antibody solution was prepared (anti-trimethyl-MEKK2 at 1:600 dilution plus mouse anti-flag antibody at 1:10,000 dilution in diluent (Odyssey Blocking buffer+0.1% Tween 20)) and 20 μL per well was dispensed using the Multidrop Combi. Assay plates were then sealed with foil, and incubated overnight at 4° C. Plates were washed five times with PBS-Tween (1×) on Biotek ELx405 and blotted on paper towel to remove excess reagent.
First, the ratio for each well was determined by:
Each plate included fourteen control wells of DMSO only treatment (Minimum Inhibition) as well as fourteen control wells for maximum inhibition (Background). The average of the ratio values for each control type was calculated and used to determine the percent inhibition for each test well in the plate. Reference compound was serially diluted two-fold in DMSO for a total of nine test concentrations, beginning at 40 μM. Percent inhibition was calculated (below).
Non-linear regression curves were generated to calculate the IC50 and dose-response relationship using triplicate wells per concentration of compound.

[3] = Table 3A, average of n = 1 to n = 50
[4] = Table 3A, average of n = 1 to n = 50, read-out: SMYD3 cell IC50

T1 sequence (Q9H7B4 whole entry): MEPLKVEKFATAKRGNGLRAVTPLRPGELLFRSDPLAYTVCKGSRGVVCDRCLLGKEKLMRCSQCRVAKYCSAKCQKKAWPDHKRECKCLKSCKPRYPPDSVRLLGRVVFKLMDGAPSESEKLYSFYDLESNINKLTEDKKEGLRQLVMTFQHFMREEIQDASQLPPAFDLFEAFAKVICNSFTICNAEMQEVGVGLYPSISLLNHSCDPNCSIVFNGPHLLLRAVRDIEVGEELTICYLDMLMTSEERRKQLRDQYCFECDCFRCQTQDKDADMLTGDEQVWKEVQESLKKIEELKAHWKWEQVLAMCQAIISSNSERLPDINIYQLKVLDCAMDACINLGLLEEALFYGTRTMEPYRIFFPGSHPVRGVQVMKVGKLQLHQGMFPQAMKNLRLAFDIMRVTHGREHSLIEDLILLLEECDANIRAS

IC50 ([2]; read-out: SMYD3 Cell IC50) | SMILES | IC50 [1, 3] | IC50 [2, 4] | IC50 [1] | IC50 [2]
– | Cc1cc2c(cc1C(=O)N[C@H]1C[C@H]3CC[C@@H](C1)N3S(=O)(=O)N1CCC(N)CC1)CC(=O)N2 [compound 606, N-((1R,3r,5S)-8-((4-aminopiperidin-1-yl)sulfonyl)-8-azabicyclo[3.2.1]octan-3-yl)-6-methyl-2-oxoindoline-5-carboxamide] | 15.6 nM | 1790 nM | – | –
– | CC(=O)Nc1ccc(S(=O)(=O)N2CCC(NC(=O)c3ccc4c(c3)CC(=O)N4)CC2)cc1 [compound 643, N-(1-((4-acetamidophenyl)sulfonyl)piperidin-4-yl)-2-oxoindoline-5-carboxamide] | 16900 nM | ≥ 10000 nM | – | –
– | C[C@H]1C[C@@H](NC(=O)c2ccc3c(c2)CC(=O)N3)CCN1S(=O)(=O)CC1CCNCC1 [compound 599, N-((2S,4S)-2-methyl-1-((piperidin-4-ylmethyl)sulfonyl)piperidin-4-yl)-2-oxoindoline-5-carboxamide] | 4.42 nM | 9490 nM | – | –
– | C[C@H]1CN(S(=O)(=O)N2CCC(N)CC2)CCC1NC(=O)c1cc2c(cc1Cl)NC(=O)C2 (stereo partly drawn) [compound 603, N-((3S)-1-((4-aminopiperidin-1-yl)sulfonyl)-3-methylpiperidin-4-yl)-6-chloro-2-oxoindoline-5-carboxamide] | 8.53 nM | 2680 nM | – | –
– | NC1CCN(S(=O)(=O)N2[C@@H]3CC[C@H]2C[C@@H](NC(=O)c2cc4c(cc2Cl)NC(=O)C4)C3)CC1 [compound 579, N-((1R,3r,5S)-8-((4-aminopiperidin-1-yl)sulfonyl)-8-azabicyclo[3.2.1]octan-3-yl)-6-chloro-2-oxoindoline-5-carboxamide] | 0.81 nM | 1130 nM | – | –
– | O=C1Cc2cc(C(=O)N[C@H]3C[C@H]4CC[C@@H](C3)N4S(=O)(=O)CCN3CCCC3)c(Cl)cc2N1 [compound 614, 6-chloro-2-oxo-N-((1R,3r,5S)-8-((2-(pyrrolidin-1-yl)ethyl)sulfonyl)-8-azabicyclo[3.2.1]octan-3-yl)indoline-5-carboxamide] | 46 nM | 380 nM | – | –
– | N[C@H]1CC[C@H](S(=O)(=O)N2[C@@H]3CC[C@H]2C[C@@H](NC(=O)c2cc4c(cc2Cl)NC(=O)C4)C3)CC1 [compound 583, N-((1R,3R,5S)-8-(((1r,4R)-4-aminocyclohexyl)sulfonyl)-8-azabicyclo[3.2.1]octan-3-yl)-6-chloro-2-oxoindoline-5-carboxamide] | 1.1 nM | 1510 nM | – | –
– | CC(C)(N)c1ccc(S(=O)(=O)N2[C@@H]3CC[C@H]2C[C@@H](NC(=O)c2cc4c(cc2Cl)NC(=O)C4)C3)cc1 [compound 613, N-((1R,3r,5S)-8-((4-(2-aminopropan-2-yl)phenyl)sulfonyl)-8-azabicyclo[3.2.1]octan-3-yl)-6-chloro-2-oxoindoline-5-carboxamide] | 37.1 nM | 1770 nM | – | –
– | CNC1CCN(S(=O)(=O)N2[C@@H]3CC[C@H]2C[C@@H](NC(=O)c2cc4c(cc2Cl)NC(=O)C4)C3)CC1 [compound 586, 6-chloro-N-((1R,3r,5S)-8-((4-(methylamino)piperidin-1-yl)sulfonyl)-8-azabicyclo[3.2.1]octan-3-yl)-2-oxoindoline-5-carboxamide] | 1.89 nM | 425 nM | – | –
– | CN1C(=O)Cc2cc(C(=O)N[C@H]3C[C@H]4CC[C@@H](C3)N4S(=O)(=O)CC3CCNCC3)ccc21 [compound 611, 1-methyl-2-oxo-N-((1R,3r,5S)-8-((piperidin-4-ylmethyl)sulfonyl)-8-azabicyclo[3.2.1]octan-3-yl)indoline-5-carboxamide] | 25.9 nM | 3920 nM | – | –
– | N[C@H]1CC[C@@H](S(=O)(=O)N2[C@@H]3CC[C@H]2C[C@@H](NC(=O)c2ccc4c(c2)CC(=O)N4)C3)CC1 [compound 591, N-((1R,3R,5S)-8-(((1s,4S)-4-aminocyclohexyl)sulfonyl)-8-azabicyclo[3.2.1]octan-3-yl)-2-oxoindoline-5-carboxamide] | – | 2310 nM | 2.33 nM | –
– | C[C@H]1C[C@@H](NC(=O)c2ccc3c(c2)CC(=O)N3)CCN1S(=O)(=O)N1CCC(N)CC1 [compound 580, N-((2S,4S)-1-((4-aminopiperidin-1-yl)sulfonyl)-2-methylpiperidin-4-yl)-2-oxoindoline-5-carboxamide] | 0.9 nM | 1640 nM | – | –
– | NC1CCN(S(=O)(=O)N2[C@@H]3CC[C@H]2C[C@@H](NC(=O)c2ccc4c(c2)OCC(=O)N4)C3)CC1 [compound 636, N-((1R,3r,5S)-8-((4-aminopiperidin-1-yl)sulfonyl)-8-azabicyclo[3.2.1]octan-3-yl)-3-oxo-3,4-dihydro-2H-benzo[b][1,4]oxazine-7-carboxamide] | 819 nM | – | – | ≥ 10000 nM
– | NC1CCN(S(=O)(=O)N2[C@@H]3CC[C@H]2C[C@@H](NC(=O)c2cc4c(cc2Br)NC(=O)C4)C3)CC1 [compound 602, N-((1R,3r,5S)-8-((4-aminopiperidin-1-yl)sulfonyl)-8-azabicyclo[3.2.1]octan-3-yl)-6-bromo-2-oxoindoline-5-carboxamide] | 7.12 nM | 3730 nM | – | –
– | C[C@H]1C[C@@H](NC(=O)c2cc3c(cc2Cl)NC(=O)C3)CCN1S(=O)(=O)c1ccc(C(C)(C)N)cc1 [compound 588, N-((2S,4S)-1-((4-(2-aminopropan-2-yl)phenyl)sulfonyl)-2-methylpiperidin-4-yl)-6-chloro-2-oxoindoline-5-carboxamide] | 1.98 nM | 356 nM | – | –
– | O=C1Cc2cc(C(=O)N[C@H]3C[C@H]4CC[C@@H](C3)N4S(=O)(=O)C[C@@H]3CCCNC3)c(Cl)cc2N1 [compound 600, 6-chloro-2-oxo-N-((1R,3R,5S)-8-((((R)-piperidin-3-yl)methyl)sulfonyl)-8-azabicyclo[3.2.1]octan-3-yl)indoline-5-carboxamide] | 4.99 nM | 728 nM | – | –
– | NC1CCC(S(=O)(=O)N2[C@@H]3CC[C@H]2C[C@@H](NC(=O)c2ccc4c(c2)OC(F)(F)O4)C3)CC1 (stereo partly drawn) [Cpd. No. 622, N-((1R,3r,5S)-8-(4-aminocyclohexylsulfonyl)-8-aza-bicyclo[3.2.1]octan-3-yl)-2,2-difluorobenzo[d][1,3]dioxole-5-carboxamide Trifluoroacetate] | 131 nM | 1080 nM | – | –
– | CC(C)(N)c1ccc(S(=O)(=O)N2[C@@H]3CC[C@H]2C[C@@H](NC(=O)c2ccc4c(c2)CC(=O)N4)C3)cc1 [compound 612, N-((1R,3r,5S)-8-((4-(2-aminopropan-2-yl)phenyl)sulfonyl)-8-azabicyclo[3.2.1]octan-3-yl)-2-oxoindoline-5-carboxamide] | 30.7 nM | 2530 nM | – | –
> 40000 nM | NCCC(=O)N[C@H]1CC[C@H](NC(=O)c2cc3c(cc2Cl)NC(=O)C3)CC1 [compound 491, N-((1r,4r)-4-(3-aminopropanamido)cyclohexyl)-6-chloro-2-oxoindoline-5-carboxamide] | – | – | 150 nM | –
– | NC1CCN(S(=O)(=O)N2[C@@H]3CC[C@H]2C[C@@H](NC(=O)c2cc(C4CC4)[nH]n2)C3)CC1 [compound 633, N-((1R,3r,5S)-8-((4-aminopiperidin-1-yl)sulfonyl)-8-azabicyclo[3.2.1]octan-3-yl)-5-cyclopropyl-1H-pyrazole-3-carboxamide] | 529 nM | ≥ 10000 nM | – | –
